What is called IC50 is the midpoint of a concentration-inhibition curve. The low end stands for greater potency in that assay, the high end for weaker potency in that assay.

Holding throughout (assay): TG Activity Assays
Assay [1] addresses T1, Protein-glutamine gamma-glutamyltransferase E (Homo sapiens, UniProt Q08188).
T1 sequence (Q08188 whole entry): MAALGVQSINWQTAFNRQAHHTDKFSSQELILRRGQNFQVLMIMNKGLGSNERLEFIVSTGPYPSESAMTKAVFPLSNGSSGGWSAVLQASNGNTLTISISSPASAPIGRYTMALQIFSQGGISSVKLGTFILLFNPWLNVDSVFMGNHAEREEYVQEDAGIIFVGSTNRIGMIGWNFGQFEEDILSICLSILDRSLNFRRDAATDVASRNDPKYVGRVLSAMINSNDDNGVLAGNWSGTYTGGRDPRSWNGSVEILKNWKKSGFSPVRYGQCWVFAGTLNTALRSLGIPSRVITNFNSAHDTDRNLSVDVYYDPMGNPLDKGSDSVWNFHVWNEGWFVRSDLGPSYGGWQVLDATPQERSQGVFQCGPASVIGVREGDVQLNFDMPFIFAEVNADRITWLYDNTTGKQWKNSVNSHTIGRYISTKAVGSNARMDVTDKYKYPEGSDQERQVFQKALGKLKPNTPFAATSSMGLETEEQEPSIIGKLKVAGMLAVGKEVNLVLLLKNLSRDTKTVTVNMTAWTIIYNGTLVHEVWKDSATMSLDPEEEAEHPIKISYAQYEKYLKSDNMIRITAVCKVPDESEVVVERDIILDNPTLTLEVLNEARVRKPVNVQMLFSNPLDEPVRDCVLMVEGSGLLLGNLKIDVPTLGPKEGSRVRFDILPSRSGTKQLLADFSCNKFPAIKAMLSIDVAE
The procedure:
(§1) The incorporated biotinylated peptides were measured using horseradish peroxidase-conjugated streptavidin and then measured using o-phenylenediamine dihydrochloride substrates. The absorbance was measured at 490 nm using a microplat

In assay [2] the target is T2, Protein-glutamine gamma-glutamyltransferase 2 (Homo sapiens, UniProt P21980).
T2 sequence (P21980 whole entry): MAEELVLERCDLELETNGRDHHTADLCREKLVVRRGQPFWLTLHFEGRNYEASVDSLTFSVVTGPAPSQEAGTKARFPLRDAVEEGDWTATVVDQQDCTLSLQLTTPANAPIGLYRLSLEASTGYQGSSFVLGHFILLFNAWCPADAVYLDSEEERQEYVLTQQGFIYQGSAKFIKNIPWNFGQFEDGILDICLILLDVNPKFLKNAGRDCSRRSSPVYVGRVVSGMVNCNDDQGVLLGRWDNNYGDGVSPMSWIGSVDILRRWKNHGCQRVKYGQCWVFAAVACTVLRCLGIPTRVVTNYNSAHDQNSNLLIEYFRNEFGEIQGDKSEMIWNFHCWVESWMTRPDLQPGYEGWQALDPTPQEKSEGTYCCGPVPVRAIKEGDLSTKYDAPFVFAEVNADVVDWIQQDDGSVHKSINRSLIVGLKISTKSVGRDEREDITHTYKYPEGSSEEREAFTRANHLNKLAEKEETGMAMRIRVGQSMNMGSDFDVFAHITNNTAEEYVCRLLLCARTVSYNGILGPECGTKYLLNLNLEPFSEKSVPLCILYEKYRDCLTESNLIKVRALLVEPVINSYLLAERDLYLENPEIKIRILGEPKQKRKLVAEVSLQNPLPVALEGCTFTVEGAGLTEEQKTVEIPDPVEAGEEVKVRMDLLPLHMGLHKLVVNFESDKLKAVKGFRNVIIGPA
The method, then:
as §1

Assay [3] deals with T3, Protein-glutamine gamma-glutamyltransferase K (Homo sapiens, UniProt P22735).
T3 sequence (P22735 whole entry): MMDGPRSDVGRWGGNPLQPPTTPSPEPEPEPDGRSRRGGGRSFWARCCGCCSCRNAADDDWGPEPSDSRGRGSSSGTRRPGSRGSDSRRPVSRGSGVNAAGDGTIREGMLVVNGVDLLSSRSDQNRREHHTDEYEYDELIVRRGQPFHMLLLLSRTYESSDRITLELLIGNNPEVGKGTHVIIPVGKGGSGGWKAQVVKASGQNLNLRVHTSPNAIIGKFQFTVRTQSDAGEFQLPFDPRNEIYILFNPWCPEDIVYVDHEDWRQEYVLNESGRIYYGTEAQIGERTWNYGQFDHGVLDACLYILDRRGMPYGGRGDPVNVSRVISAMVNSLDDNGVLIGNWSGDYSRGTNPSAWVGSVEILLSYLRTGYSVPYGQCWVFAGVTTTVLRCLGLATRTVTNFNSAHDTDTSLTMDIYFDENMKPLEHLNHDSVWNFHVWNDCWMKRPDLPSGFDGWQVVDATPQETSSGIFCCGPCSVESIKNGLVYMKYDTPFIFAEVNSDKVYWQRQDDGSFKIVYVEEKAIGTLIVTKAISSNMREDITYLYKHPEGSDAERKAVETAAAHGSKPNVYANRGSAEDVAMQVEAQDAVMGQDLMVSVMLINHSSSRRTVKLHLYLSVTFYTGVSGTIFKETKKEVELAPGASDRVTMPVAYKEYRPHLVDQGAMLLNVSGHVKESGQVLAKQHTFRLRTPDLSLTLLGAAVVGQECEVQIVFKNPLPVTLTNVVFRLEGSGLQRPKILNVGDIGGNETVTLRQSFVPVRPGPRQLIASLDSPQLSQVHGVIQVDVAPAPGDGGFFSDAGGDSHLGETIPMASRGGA
The procedure: as §1

The structures appear in SMILES notation.

Turning to `C=CC(=O)NCC(=O)N1CCN(C(=O)OCc2ccc3ccccc3c2)CC1` [2-Naphthylmethyl 4-[2-(prop-2-enoylamino)acetyl]piperazine-1-carboxylate (3c)], the IC50 in assay [1] was greater than 100 µM; in assay [2], 0.44 µM; in assay [3] it was greater than 100 µM.
`O=C(CBr)NCC(=O)N1CCN(C(=O)OCCC23CC4CC(CC(C4)C2)C3)CC1` [2-(1-Adamantyl)ethyl 4-[2-[(2-bromoacetyl)amino]acetyl]piperazine-1-carboxylate (6g)]: the IC50 amounted to 50 µM in assay [1] and 3 µM in assay [3].
`C=CC(=O)NCC(=O)N1CCN(C(=O)OCc2ccc(C(=O)OC)cc2)CC1` [(4-Methoxycarbonylphenyl)methyl 4-[2-(prop-2-enoylamino)acetyl]piperazine-1-carboxylate (3b)] registered a half-maximal inhibitory concentration (IC50) in assay [2] of 6.3 µM.
Take `C=CS(=O)(=O)NCC(=O)N1CCN(C(=O)C23CC4CC(CC(C4)C2)C3)CC1` [N-[2-[4-(adamantane-1-carbonyl)piperazin-1-yl]-2-oxo-ethyl]ethenesulfonamide (2e)]: in assay [2], the midpoint of inhibition, the IC50, lay at 0.875 µM.
As to `C[S+](C)CC(=O)NCC(=O)N1CCN(C(=O)OC(C)(C)C)CC1` [[2-[[2-(4-tert-Butoxycarbonylpiperazin-1-yl)-2-oxo-ethyl]amino]-2-oxo-ethyl]-dimethylsulfonium bromide (1m)], the IC50 in assay [1] is greater than 100 µM; in assay [2] it was 0.273 µM; in assay [3], greater than 100 µM.
In the case of `C[S+](C)CC(=O)NCC(=O)N1CCN(C(=O)OCc2ccccc2)CC1` [[2-[[2-(4-Benzyloxycarbonylpiperazin-1-yl)-2-oxo-ethyl]amino]-2-oxo-ethyl]-dimethylsulfonium bromide (1a)], the IC50 in assay [1] was greater than 100 µM; in assay [2], 1.4 µM; in assay [3], greater than 100 µM.
Regarding `COC(=O)c1ccc(COC(=O)N2CCN(C(=O)CNC(=O)CBr)CC2)cc1` [(4-Methoxycarbonylphenyl)methyl 4-[2-[(2-bromoacetyl)amino]acetyl]piperazine-1-carboxylate (6b)], the IC50 in assay [2] turned out to be 0.0021 µM.
Still for that read-out and setting: the result for `O=C(CBr)NCC(=O)N1CCN(C(=O)OCC23CC4CC(CC(C4)C2)C3)CC1` [1-Adamantylmethyl 4-[2-[(2-bromoacetyl)amino]acetyl]piperazine-1-carboxylate (6f)] reads 0.00629 µM; that for `COC(=O)c1ccc2cc(COC(=O)N3CCN(C(=O)CNC(=O)CCl)CC3)ccc2c1` [(6-Methoxycarbonyl-2-naphthyl)methyl 4-[2-[(2-chloroacetyl)amino]acetyl]piperazine-1-carboxylate (6n)], 0.00665 µM.
The same measure, in the same setting: next, `Cc1c(C)[n+](C)c(SCC(=O)NCC(=O)N2CCN(C(=O)OCc3ccccc3)CC2)n1C` [Benzyl 4-[2-[[2-(1,3,4,5-tetramethylimidazol-1-ium-2-yl)sulfanylacetyl]amino]-acetyl]-piperazine-1-carboxylate bromide (1s)]: 100 µM.
On the same count and under the same terms, the result for `C=CC(=O)NCC(=O)N1CCN(C(=O)OCc2ccccc2)CC1` [Benzyl 4-[2-(prop-2-enoylamino)acetyl]piperazine-1-carboxylate (3a)] reads 5.92 µM.
`C=CS(=O)(=O)NCC(=O)N1CCN(C(=O)OCc2ccccc2)CC1` [Benzyl 4-[2-(vinylsulfonylamino)acetyl]piperazine-1-carboxylate (2a)] registered an IC50 in assay [2] of 1.73 µM.
On the same count and under the same terms, next, `O=C(CBr)NCC(=O)N1CCN(C(=O)OCc2ccc3ccccc3c2)CC1` [2-Naphthylmethyl 4-[2-[(2-bromoacetyl)amino]acetyl]piperazine-1-carboxylate (6c)]: 0.029 µM.
For `COC(=O)c1ccc(COC(=O)N2CCN(C(=O)CNC(=O)C[S+](C)C)CC2)cc1` [[2-[[2-[4-[(4-Methoxycarbonylphenyl)methoxycarbonyl]piperazin-1-yl]-2-oxo-ethyl]-amino]-2-oxo-ethyl]-dimethyl-sulfonium bromide (1b)], the concentration for half-maximal inhibition (IC50) is greater than 100 µM in assay [1], 3.3 µM in assay [2] and greater than 100 µM in assay [3].
Take `C[S+](C)CC(=O)NCC(=O)N1CCN(C(=O)OCCC23CC4CC(CC(C4)C2)C3)CC1` [[2-[[2-[4-[2-(1-Adamantyl)ethoxycarbonyl]piperazin-1-yl]-2-oxo-ethyl]amino]-2-oxo-ethyl]-dimethyl-sulfonium bromide (1g)]: the IC50 in assay [2] worked out at 3.15 µM.
Regarding `C=CC(=O)NCC(=O)N1CCN(C(=O)OCCC23CC4CC(CC(C4)C2)C3)CC1` [2-(1-Adamantyl)ethyl 4-[2-(prop-2-enoylamino)acetyl]piperazine-1-carboxylate (3g)], the IC50 was greater than 100 µM in assay [1], 0.9 µM in assay [2] and greater than 100 µM in assay [3].
With `O=C(CBr)NCC(=O)N1CCN(C(=O)C23CC4CC(CC(C4)C2)C3)CC1` [N-[2-[4-(adamantane-1-carbonyl)piperazin-1-yl]-2-oxo-ethyl]-2-bromo-acetamide (6e)], the half-inhibitory concentration (IC50) amounted to 70 µM in assay [1], 0.0039 µM in assay [2] and 1 µM in assay [3].
Regarding `O=C(CCl)NCC(=O)N1CCN(C(=O)C23CC4CC(CC(C4)C2)C3)CC1` [N-[2-[4-(adamantane-1-carbonyl)piperazin-1-yl]-2-oxo-ethyl]-2-chloro-acetamide (6o)], inhibition in assay [2] was half-maximal at 0.00875 µM (IC50).
For `C[S+](C)CC(=O)NCC(=O)N1CCN(C(=O)OCc2ccc3ccccc3c2)CC1` [Dimethyl-[2-[[2-[4-(2-naphthylmethoxycarbonyl)piperazin-1-yl]-2-oxo-ethyl]amino]-2-oxo-ethyl]sulfonium bromide (1c)], the IC50 is greater than 100 µM in assay [1], 1.07 µM in assay [2] and greater than 100 µM in assay [3].
For `COC(=O)c1ccc2cc(COC(=O)N3CCN(C(=O)CNC(=O)CBr)CC3)ccc2c1` [(6-Methoxycarbonyl-2-naphthyl)methyl 4-[2-[(2-bromoacetyl)amino]acetyl]piperazine-1-carboxylate (6d)], the 50% inhibitory concentration (IC50) in assay [1] amounted to 65 µM; in assay [2], 0.015 µM; in assay [3], 5 µM.
`C=CC(=O)NCC(=O)N1CCN(S(=O)(=O)c2cccc3c(N(C)C)cccc23)CC1` [N-[2-[4-[[5-(dimethylamino)-1-naphthyl]sulfonyl]piperazin-1-yl]-2-oxo-ethyl]prop-2-enamide (3h)]: the IC50 in assay [1] amounted to 20 µM; in assay [3] it was 25 µM.

The values above are taken from BindingDB's records for doi:10.1016/j.chembiol.2015.08.013 (Aston University, 2015).
